Laboratory results as given in publication PMC3838380, “Investigating the Allosteric Regulation of YfiN from Pseudomonas aeruginosa: Clues from the Structure of the Catalytic Domain” (PLoS ONE, 2013).

Assays:
YfiNHAMP-GGDEF = target: T1, YfiNHAMP-GGDEF (Pseudomonas aeruginosa, UniProt Q9I4L5); assay: isothermal titration calorimetry; format: binding
T1 construct: gene tpbB; cytosolic HAMP-GGDEF portion, residues 183-435, C-terminal His-tag (pET24b), synthetic gene, E. coli BL21(DE3), about 28 kDa, monomeric by AUC
T1 sequence (Q9I4L5 183-435): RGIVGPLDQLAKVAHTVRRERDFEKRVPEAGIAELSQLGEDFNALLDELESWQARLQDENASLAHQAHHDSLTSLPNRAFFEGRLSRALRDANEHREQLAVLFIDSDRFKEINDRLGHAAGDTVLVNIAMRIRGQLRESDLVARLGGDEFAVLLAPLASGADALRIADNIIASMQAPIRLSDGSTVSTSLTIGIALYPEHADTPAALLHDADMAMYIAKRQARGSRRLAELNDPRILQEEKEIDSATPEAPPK
Description: isothermal titration calorimetry on YfiNHAMP-GGDEF

YfiNGGDEF = target: T2, YfiNGGDEF (Pseudomonas aeruginosa, UniProt Q9I4L5); assay: isothermal titration calorimetry; format: binding
T2 construct: gene tpbB
T2 sequence (Q9I4L5 232-435): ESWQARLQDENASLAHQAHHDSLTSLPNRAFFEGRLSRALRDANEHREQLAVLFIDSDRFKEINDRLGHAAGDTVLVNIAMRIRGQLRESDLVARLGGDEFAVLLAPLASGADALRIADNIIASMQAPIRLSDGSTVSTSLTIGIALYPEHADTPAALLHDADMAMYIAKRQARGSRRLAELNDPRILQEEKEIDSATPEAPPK
Description: isothermal titration calorimetry on YfiNGGDEF

SMILES: Nc1nc2c(ncn2[C@@H]2O[C@H](COP(=O)(O)OP(=O)(O)OP(=O)(O)O)[C@@H](O)[C@H]2O)c(=O)[nH]1 [GTP]
- Kd (YfiNHAMP-GGDEF): 0.18 µM
- Kd (YfiNGGDEF): 0.067 µM
